Results from the supplement of paper PMC10307832.

Experiments:
Test in all cases: relative viability (nuclei count vs DMSO), 5 days (fraction); higher = more cells survive
[1] = compound: C=CCn1c(=O)c2cnc(Nc3ccc(N4CCN(C)CC4)cc3)nc2n1-c1cccc(C(C)(C)O)n1 [Adavosertib] + Cc1nc(Nc2ncc(C(=O)Nc3c(C)cccc3Cl)s2)cc(N2CCN(CCO)CC2)n1 [Dasatinib] (partner 0.075 µM)
Summary of the method: (§1)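 Relative viability equals treated-well nuclei counts divided by vehicle-well nuclei counts. Counts came from 4× images of lung cancer cell lines grown in 1536-well plates for 5 days after pin-tool dosing on the day after seeding. Dosing used one drug alone or a fixed anchor-drug dose plus five library-drug doses (not always all listed) in √10 steps, and values are medians of duplicate plates.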

[2] = compound: C=CCn1c(=O)c2cnc(Nc3ccc(N4CCN(C)CC4)cc3)nc2n1-c1cccc(C(C)(C)O)n1 [Adavosertib] + CC1(C)CCC(c2ccc(Cl)cc2)=C(CN2CCN(c3ccc(C(=O)NS(=O)(=O)c4ccc(N[C@H](CCN5CCOCC5)CSc5ccccc5)c(S(=O)(=O)C(F)(F)F)c4)cc3)CC2)C1 [Navitoclax] (partner 0.5 µM)
Summary of the method: as §1

[3] = compound: COc1nc(N)nc2c1ncn2[C@@H]1O[C@H](CO)[C@@H](O)[C@@H]1O [Nelarabine] + Nc1nc2[nH]cc(CCc3ccc(C(=O)N[C@@H](CCC(=O)O)C(=O)O)cc3)c2c(=O)[nH]1 [Pemetrexed] (partner 0.2 µM)
Summary of the method: as §1

[4] = compound: COc1nc(N)nc2c1ncn2[C@@H]1O[C@H](CO)[C@@H](O)[C@@H]1O [Nelarabine] + Cc1cc(Nc2cc(N3CCN(C)CC3)nc(Sc3ccc(NC(=O)C4CC4)cc3)n2)n[nH]1 [Tozasertib] (partner 0.1 µM)
Summary of the method: as §1

Cell Line	relative viability ([1]; first compound 0.01 µM)	relative viability ([1]; first compound 0.03162 µM)	relative viability ([1]; first compound 0.1 µM)	relative viability ([1]; first compound 0.3162 µM)	relative viability ([2]; first compound 0.01 µM)	relative viability ([2]; first compound 0.03162 µM)	relative viability ([2]; first compound 0.1 µM)	relative viability ([2]; first compound 0.3162 µM)	relative viability ([3]; first compound 0.01 µM)	relative viability ([3]; first compound 0.03162 µM)	relative viability ([3]; first compound 0.1 µM)	relative viability ([3]; first compound 0.3162 µM)	relative viability ([3]; first compound 1 µM)	relative viability ([4]; first compound 0.01 µM)	relative viability ([4]; first compound 0.03162 µM)	relative viability ([4]; first compound 0.1 µM)	relative viability ([4]; first compound 0.3162 µM)	relative viability ([4]; first compound 1 µM)
SW 1573	0.62	0.424	0.633	0.215	1.07	0.988	1.29	0.926	0.957	0.908	1.01	0.838	0.877	0.167	0.199	0.134	0.23	0.162
NCI-H1944	0.205	0.201	0.218	0.199	1.05	1.02	1.07	1.02	0.659	0.584	0.589	0.617	0.61	0.285	0.239	0.252	0.27	0.253
NCI-H2170	0.522	0.48	0.608	0.389	0.605	0.57	0.482	0.313	0.269	0.262	0.228	0.318	0.303	0.81	0.689	0.767	0.88	0.73
COR-L 105	0.285	0.308	0.331	0.246	0.886	0.72	0.746	0.617	1.11	1.26	1.16	1.15	1.08	0.356	0.353	0.302	0.362	0.433
BEN	0.294	0.295	0.297	0.302	0.0632	0.0724	0.0727	0.0601	0.788	0.822	0.765	0.837	0.752	0.566	0.495	0.551	0.546	0.452
HARA	0.258	0.249	0.283	0.338	1.11	1.11	1.13	1.1	0.233	0.28	0.225	0.288	0.226	0.119	0.112	0.0991	0.0991	0.105
NCI-H1437	0.404	0.323	0.375	0.43	1.05	1.13	1.16	1.11	0.344	0.359	0.301	0.39	0.323	0.466	0.353	0.488	0.427	0.41
COR-L23	0.63	0.459	0.517	0.239	1.14	1.03	1.14	0.293	0.205	0.194	0.193	0.184	0.203	0.199	0.165	0.168	0.22	0.185
201T	0.544	0.524	0.568	0.463	1.24	1.18	1.26	1.18	0.378	0.279	0.349	0.417	0.444	1.12	0.692	0.885	1.08	0.926
NCI-H23	0.737	0.838	0.788	0.412	0.89	0.677	0.938	0.368	1.04	0.729	0.771	0.71	0.666	0.594	0.327	0.377	0.369	0.509
EKVX	0.534	0.602	0.538	0.52	0.927	0.929	0.944	1.2	0.431	0.436	0.417	0.506	0.46	0.463	0.476	0.449	0.372	0.395
NCI-H1915	0.325	0.315	0.352	0.293	0.831	0.766	0.804	0.786	0.676	0.539	0.561	0.658	0.699	0.576	0.417	0.633	0.475	0.459
LU99A	0.472	0.51	0.532	0.355	0.895	0.733	0.901	0.652	0.197	0.154	0.173	0.192	0.223	0.287	0.253	0.239	0.264	0.279
LK-2	0.286	0.229	0.291	0.359	0.98	0.882	0.989	0.808	0.191	–	0.26	0.273	0.294	0.172	–	0.161	0.147	0.156
SK-LU-1	0.249	0.158	0.148	0.136	0.759	0.594	0.989	0.238	1.19	0.796	1.06	0.995	1.04	0.307	0.198	0.298	0.323	0.332
NCI-H1755	0.406	0.424	0.447	0.384	0.983	1	1.02	0.926	0.654	0.377	0.363	0.501	0.451	0.683	0.524	0.561	0.645	0.557
NCI-H647	0.2	0.21	0.259	0.107	1.15	1.17	1.12	0.985	0.17	0.162	0.154	0.194	0.217	0.347	0.207	0.387	0.24	0.247
NCI-H1734	0.53	0.469	0.464	0.318	0.866	0.818	0.877	0.821	0.416	0.473	0.368	0.48	0.464	0.305	0.253	0.253	0.257	0.292

Cell Line	relative viability ([1]; first compound 0.01 µM)	relative viability ([1]; first compound 0.03162 µM)	relative viability ([1]; first compound 0.1 µM)	relative viability ([1]; first compound 0.3162 µM)	relative viability ([2]; first compound 0.01 µM)	relative viability ([2]; first compound 0.03162 µM)	relative viability ([2]; first compound 0.1 µM)	relative viability ([2]; first compound 0.3162 µM)	relative viability ([3]; first compound 0.01 µM)	relative viability ([3]; first compound 0.03162 µM)	relative viability ([3]; first compound 0.1 µM)	relative viability ([3]; first compound 0.3162 µM)	relative viability ([3]; first compound 1 µM)	relative viability ([4]; first compound 0.01 µM)	relative viability ([4]; first compound 0.03162 µM)	relative viability ([4]; first compound 0.1 µM)	relative viability ([4]; first compound 0.3162 µM)	relative viability ([4]; first compound 1 µM)
NCI-H2009	0.318	0.294	0.297	0.178	1.14	1.18	1.21	1.23	1.09	1.05	1.07	1.08	1.11	0.893	0.748	0.742	0.812	0.752
LC-2-ad	0.539	0.654	0.582	0.493	0.452	0.411	0.392	0.216	0.304	0.249	0.267	0.286	0.275	0.464	0.418	0.414	0.468	0.439
NCI-H2085	0.257	0.266	0.229	0.279	1.28	1.05	1.06	1.11	0.906	0.865	0.93	0.871	0.87	0.847	0.914	0.733	0.882	0.736
H3255	0.347	0.382	0.352	0.352	0.374	0.473	0.508	0.447	0.531	0.571	0.557	0.551	0.571	–	0.896	0.685	0.576	0.515
NCI-H1793	0.392	0.308	0.439	0.36	0.338	0.405	0.422	0.425	1.04	–	1.07	0.962	0.88	0.316	0.317	0.328	0.327	0.352
NCI-H441	0.5	0.511	0.575	0.396	0.645	0.741	0.64	0.401	0.249	0.277	0.27	0.238	0.282	0.691	0.704	0.58	0.61	0.697
NCI-H838	0.291	0.326	0.31	0.285	1.16	1.11	1.18	1.13	0.268	0.252	0.287	0.278	0.282	0.285	0.274	0.272	0.341	0.262
NCI-H460	0.477	0.519	0.429	0.359	0.942	1.18	1.45	0.861	0.0547	0.0633	0.0599	0.0615	0.0625	0.834	0.253	0.38	0.77	0.442
NCI-H1650	0.306	0.293	0.305	0.216	1.15	1.26	1.25	1.1	0.531	0.406	0.381	0.432	0.343	0.393	0.307	0.331	0.458	0.378
PC-14	0.281	0.236	0.23	0.057	1.06	0.963	1.02	0.528	0.136	0.138	0.125	0.142	0.158	0.625	0.645	0.597	0.599	0.631
LXF-289	0.309	0.22	0.213	0.243	0.959	1.03	0.992	1.03	1	0.833	0.866	0.973	0.906	0.222	0.234	0.173	0.232	0.233
UMC-11	0.489	0.414	0.517	0.461	0.311	0.287	0.331	0.321	0.992	0.696	0.94	0.816	0.884	0.185	0.204	0.378	0.206	0.204
A-427	0.715	0.709	0.805	0.425	0.94	0.908	0.959	0.895	1.04	1.05	1.11	0.984	0.838	0.181	0.204	0.169	0.175	0.181
LOU-NH91	0.539	0.565	0.622	0.513	0.718	0.688	0.663	0.53	0.385	0.35	0.442	0.329	0.381	0.787	0.675	0.675	0.673	0.653
RERF-LC-KJ	0.799	0.774	0.975	0.715	1.01	0.751	0.828	0.952	0.477	0.424	0.458	0.489	0.49	0.558	0.483	0.456	0.5	0.513
NCI-H1666	0.754	0.821	0.854	0.733	0.927	0.83	0.935	0.673	0.957	0.919	0.872	0.936	0.834	0.626	0.572	0.606	0.578	0.632
NCI-H322M	0.238	0.225	0.247	0.255	–	1.25	1.12	0.953	0.601	0.565	0.631	0.653	0.61	0.554	0.485	0.407	0.501	0.456
